Assay [1] concerns the target T1, human eEF-Sec (Uniprot ID P57772) (Homo sapiens, UniProt P57772).
T1 construct: FLAG; expressed in transfected cells; host or cells: HEK293T
T1 sequence (P57772 1-596): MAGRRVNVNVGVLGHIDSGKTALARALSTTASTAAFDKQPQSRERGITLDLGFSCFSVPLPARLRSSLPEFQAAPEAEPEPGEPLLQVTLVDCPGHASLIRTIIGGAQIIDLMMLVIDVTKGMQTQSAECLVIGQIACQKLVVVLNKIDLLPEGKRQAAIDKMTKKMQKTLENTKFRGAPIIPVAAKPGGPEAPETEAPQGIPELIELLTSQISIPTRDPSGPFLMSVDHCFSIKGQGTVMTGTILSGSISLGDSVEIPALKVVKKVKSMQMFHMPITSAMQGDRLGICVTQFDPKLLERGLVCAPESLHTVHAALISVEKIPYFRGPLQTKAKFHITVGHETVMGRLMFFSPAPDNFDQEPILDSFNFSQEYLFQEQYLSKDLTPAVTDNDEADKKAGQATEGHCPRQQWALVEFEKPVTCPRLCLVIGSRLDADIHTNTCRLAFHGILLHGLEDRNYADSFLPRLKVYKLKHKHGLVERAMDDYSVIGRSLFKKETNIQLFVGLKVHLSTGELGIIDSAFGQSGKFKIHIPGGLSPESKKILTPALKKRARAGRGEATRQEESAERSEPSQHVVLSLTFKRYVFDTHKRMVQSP
Put plainly: Purine probe labeling of recombinant eEF-Sec expressed in HEK293T cells, gel-based. It is filed as cell-based. Particulars: 50 μM probe, live cells, 0.5 to 2 hours. On the procedure: Methods: HEK293T cells were grown at 37° C. in 5% CO2 until 40% confluent. Recombinant human eEF-Sec (Uniprot ID P57772) was expressed by transient transfection for 48 hours. […] Lysates were spun at 100,000×g for 45 minutes. […] Purine probe modified proteins were conjugated to rhodamine-azide by CuAAC, subjected to SDS-PAGE analysis, and detected by in-gel fluorescence scanning. Comparison of non-transfected (Mock) and transfected proteomes was used to identify the recombinant eEF-Sec purine probe-labeled band. […] Reduction in fluorescent signals from purine probe labeling was indicative of Pi ligand inhibitory activity. Mut represents eEF-Sec mutant where cysteine residue 442 is mutated to alanine (C442A).
SDS-PAGE gels were transferred to nitrocellulose membrane. Nitrocellulose blots were blocked with 5% BSA. Blots were washed five times with TBS-T. Recombinant protein expression was detected using an anti-FLAG primary antibody (1:1,000) followed by fluorescent secondary antibody (1:10,000) to determine if there was equivalent protein expression across different treatment conditions.

The test system of another assay is DM93 cells. Put plainly: Live cell activity of purine probes, gel-based (CuAAC rhodamine-azide, in-gel fluorescence). The following applies: for labeling profile in live cells: DM93 cells, 25 μM, 4 hours. On the procedure: Live Cell Activity Method: DM93 cells were grown at 37° C. in 5% CO2 until 90% confluent. Once confluent cells were washed with serum free media and treated with halogenated purine probes at a final concentration of 25 μM (unless stated) for 4 hours (unless stated). Cells were then scraped and washed 3× with cold PBS and lysed in PBS+protease inhibitor. Lysates were spun at 100,000×g for 45 minutes. Halogen probe-modified proteins in soluble fractions were visualized by conjugating rhodamine-azide using copper-catalyzed azide-alkyne cycloaddition (CuAAC; 1 hour, room temperature), subjected to SDS-PAGE, and detected by in-gel fluorescence scanning. SDS-PAGE gels were also stained with Coomassie brilliant blue to determine protein load. All samples were loaded with equivalent amounts of protein. Thus, changes in purine probe labeling is not due to loading of different proteome amounts.

A further assay has as its system C57Bl/6 mice. Put plainly: In vivo activity of purine probes in mouse tissues, gel-based. The following applies: for time of peak / most robust labeling in vivo: 20 mg/kg probe. On the procedure: Mouse Treatment and Tissue Preparation Methods: 8-12 week old male and female C57Bl/6 mice were treated intraperitoneally (IP) or by oral gavage (OG) with either AHL125 (Pu-1 or AHL-Pu-1), AHL128 (Pu-2 or AHL-Pu-2), or vehicle (18:1:2, PBS:PEG40:DMSO) at 20 mg/kg unless stated otherwise. Treatment time is indicated in the experiment below. Mice were then euthanized and perfused using PBS. Tissues were then harvested, rinsed and flash frozen using liquid nitrogen and stored at −80° C. until further use. Tissues were lysed using dounce homgenization in the presence of PBS+protease inhibitor. Initial suspensions were centrifuged at 3000×g for 5 minutes to remove insoluble material. The lysate was collected and centrifuged again at 100,000×g for 45 minutes to obtain the soluble fraction. Purine probe modified proteins from treated mice were conjugated to rhodamine-azide by CuAAC, subjected to SDS-PAGE analysis, and detected by in-gel fluorescence scanning. SDS-PAGE gels were stained with Coomassie brilliant blue to determine protein load. All samples were loaded with equivalent amounts of protein. Thus, changes in purine probe labeling is not due to loading of different proteome amounts.
Mice were also treated with 80 mg/kg oral gavage (OG) to determine whether purine probes are orally bioavailable. Mice were treated for four hours.

Assay [2] relates to DM93 cells lysates (soluble fractions). Put plainly: Lysate activity of purine probes, gel-based (in-gel fluorescence). Particulars: for protein labeling activity in lysates: DM93 soluble fractions, 25 μM, 2 hrs, 37° C. It is filed as biochemical. On the procedure:
Lysate Activity Method: DM93 cells were grown at 37° C. in 5% CO2 until 90% confluent. Once confluent, cells were scraped and washed 3× times with cold PBS and lysed in PBS+protease inhibitor. Lysates were spun at 100,000×g for 45 minutes. Soluble fractions were treated with 25 μM of halogenated purine probes (unless stated) for 2 hrs (unless stated) at 37° C. Purine probe modified proteins were conjugated to rhodamine-azide by CuAAC, subjected to SDS-PAGE analysis, and detected by in-gel fluorescence scanning. SDS-PAGE gels were stained with Coomassie brilliant blue to determine protein load.

For `C#CCn1cnc2nc(Cl)nc(Cl)c21` [Pu-1, 2,6-Dichloro-7-(prop-2-yn-1-yl)-7H-purine], the “labeling of recombinant eEF-SEC” value in assay [1] is “labeled in a time dependent manner”. Further, the “labeling profile in live cells” value in the assay with DM93 cells was “robust labeling profiles”. Moreover, the “reactivity of N7 versus N9 tautomers” value in the assay on DM93 cells (live DM93 cells) is “more reactive”. In addition, in the assay on DM93 cells (live cells), the “concentration dependence of labeling” value is “concentration dependent labeling” and the “time dependence of labeling” value is “react in a time dependent manner”. In addition, in the assay on C57Bl/6 mice, the “tissue with highest activity” value was “highest activity in lung” and the “time of peak / most robust labeling in vivo” value was found to be 2 h. For the same molecule, the “labeling profile in vivo across tissues” value in the assay with C57Bl/6 mice (IP or OG, lung, liver, spleen, heart, brain, kidney, WAT) is reported as “most robust labeling profile in vivo”. For the same molecule, the “protein labeling activity in lysates” value in assay [2] is given as “highest protein labeling activity”. Further, in assay [2] (lysates), the “reactivity of N7 versus N9 tautomers” value was “more reactive”. Also, in assay [2] (proteomes), the “concentration dependence of labeling” value was “concentration dependent labeling of proteomes” and the “time dependence of labeling” value is given as “time dependence in protein labeling”.

With `C#CCn1cnc2c(Cl)nc(Cl)nc21` [Pu-2, 2,6-Dichloro-9-(prop-2-yn-1-yl)-9H-purine], the “labeling of recombinant eEF-SEC” value in assay [1] is reported as “labeled in a time dependent manner”. In addition, the “labeling profile in live cells” value in the assay on DM93 cells is on record as “robust labeling profiles”. Moreover, the results for the “time dependence of labeling” value (in the assay on DM93 cells (live cells); in assay [2] (proteomes)) were “react in a time dependent manner” and “time dependence in protein labeling”, respectively. Also, in the assay on C57Bl/6 mice, the “time of peak / most robust labeling in vivo” value amounted to 4 h. In assay [2], the “protein labeling activity in lysates” value is given as “highest protein labeling activity”.

The record behind these values is patent US20220251085A1, “CYSTEINE BINDING COMPOSITIONS AND METHODS OF USE THEREOF” (University of Virginia Patent Foundation, priority 2019, published 2022).
